Results on 22 compounds are retold here after patent US9732094B2, “Arylquinazolines” (Merck Patent GmbH, priority 2013, dated 2017).

As a reminder, the IC50 is the concentration needed to halve the response being measured. By Ki is commonly meant the dissociation constant of the complex between target and ligand, obtained from inhibition or displacement.

Where two headings read alike, the source gives them in different places.

Data set [1] deals with DNA-PK (Homo sapiens (Human), UniProt P78527). Briefly: DNA-PK assay (biochemical), flashplate 33P-ATP kinase assay. The protocol:
A) DNA-PK Assay (Biochemical)
The kinase assay was carried out in streptavidin-coated […] microtitre flashplates. […] The reaction was stopped using 50 μl/well of 200 mM EDTA. After incubation for a further 30 min at room temperature, the liquid was removed. Each well was washed three times with 100 μl of 0.9% saline solution. A nonspecific reaction (blank value) was determined using 10 μM of an innate kinase inhibitor. The radioactivity measurement was carried out using a TopCount. IC50 values were calculated in RS1.

The target of data set [2] is DNA-PK phosphorylation at serine 2056 (Homo sapiens (Human), UniProt P78527). Briefly: DNA-PK phosphorylation at serine 2056 (cellular), bleomycin-treated HCT116 cells, ELISA. Format: cell-based. Here is the method:
HCT116 cells were cultivated at 37° C. and 10% CO2 in MEM alpha medium with 10% of foetal calf serum and 2 mM glutamine. The cells were detached from the base of the culture vessels with the aid of trypsin/EDTA, centrifuged off in centrifuge tubes, taken up in fresh medium, and the cell density was determined. 100,000 cells were sown in 1 ml of culture medium per cavity of a 24-well cell culture plate and cultivated overnight. Next day, 10 μM bleomycin (DNA intercalator and inductor of DNA double-strand breaks) and test substances in fresh culture medium were added to the cells, and these were cultivated for a further six hours. […] The 96-well ELISA plates were subsequently treated with a detection antibody (Abcam ab79444: total DNA-PK) and a streptavidin-HRP conjugate. The development of the enzymatic reaction was carried out with the aid of a chemiluminescent reagent, the chemiluminescence was measured with the aid of a Mithras LB940. The signals with the phospho-DNA-PK-specific antibody were standardised to the signal with the antibody against the total protein DNA-PKc. […] The DMSO control was used as blank.
(In general: In an ELISA, binding on a coated surface is turned into a signal by an enzyme label.)

For data set [3], the target named is Kv11.1 (hERG) (Homo sapiens (Human), UniProt Q12809). Briefly: Kv11.1 (hERG) ion channel activity (patch clamp assay), HEK293 cells transfected with hERG gene.
The mark [4] stands for this setting: cellular DNA-PK phosphorylation at serine 2056, HCT116, read-out: IC50 pDNA-PK.
[5] abbreviates: read-out: Ki [Kv1.11 hERG], hERG patch clamp assay (cells without asterisk).
Setting [6] is: Ki [Kv1.11 hERG], hERG patch clamp assay (cells without asterisk).
Where [7] appears, read: read-out: Ki [Kv1.11 hERG], Table 5.
Setting [8] is: read-out: Ki [Kv1.11 hERG], patch clamp, HEK293 transfected with hERG gene.
[9] abbreviates: Ki [Kv1.11 hERG], patch clamp, HEK293 transfected with hERG gene.

Sequence of Kv11.1 (hERG) (Q12809 whole entry): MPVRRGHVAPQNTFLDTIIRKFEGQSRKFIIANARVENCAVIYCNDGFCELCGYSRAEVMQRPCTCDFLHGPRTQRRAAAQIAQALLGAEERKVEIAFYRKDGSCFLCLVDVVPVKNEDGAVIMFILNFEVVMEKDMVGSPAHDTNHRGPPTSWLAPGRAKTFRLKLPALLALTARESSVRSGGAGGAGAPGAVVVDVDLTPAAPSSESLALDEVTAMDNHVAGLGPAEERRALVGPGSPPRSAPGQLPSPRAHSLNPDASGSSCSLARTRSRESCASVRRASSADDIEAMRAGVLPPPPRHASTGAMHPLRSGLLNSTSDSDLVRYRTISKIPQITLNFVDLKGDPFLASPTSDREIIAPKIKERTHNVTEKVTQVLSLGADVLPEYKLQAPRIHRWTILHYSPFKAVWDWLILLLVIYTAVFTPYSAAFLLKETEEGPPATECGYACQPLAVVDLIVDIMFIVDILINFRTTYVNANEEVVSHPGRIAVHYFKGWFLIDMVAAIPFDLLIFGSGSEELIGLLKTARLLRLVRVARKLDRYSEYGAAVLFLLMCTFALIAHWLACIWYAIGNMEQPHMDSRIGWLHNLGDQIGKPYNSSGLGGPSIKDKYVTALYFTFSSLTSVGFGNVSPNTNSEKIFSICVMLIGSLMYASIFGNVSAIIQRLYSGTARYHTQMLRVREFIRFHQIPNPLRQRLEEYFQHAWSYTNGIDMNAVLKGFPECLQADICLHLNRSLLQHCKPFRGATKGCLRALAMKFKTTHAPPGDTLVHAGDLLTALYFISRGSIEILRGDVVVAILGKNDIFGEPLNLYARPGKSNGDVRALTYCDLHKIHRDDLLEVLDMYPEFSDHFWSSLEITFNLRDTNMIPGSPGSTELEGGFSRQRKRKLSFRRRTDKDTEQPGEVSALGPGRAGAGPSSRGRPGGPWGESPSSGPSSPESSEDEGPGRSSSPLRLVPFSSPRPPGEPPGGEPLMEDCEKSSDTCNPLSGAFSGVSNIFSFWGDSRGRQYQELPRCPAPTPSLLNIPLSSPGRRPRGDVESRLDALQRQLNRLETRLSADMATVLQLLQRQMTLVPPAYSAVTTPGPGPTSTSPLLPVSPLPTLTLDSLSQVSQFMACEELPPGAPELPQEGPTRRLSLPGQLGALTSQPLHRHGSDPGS

As for `COc1nnccc1C(C(N)=O)c1cc(-c2ncnc3cc(N4CCOCC4)ccc23)c(F)cc1Cl` (stereo not drawn) [Example 307, 2-[2-Chloro-4-fluoro-5-(7-morpholin-4-yl-quinazolin-4-yl)-phenyl]-2-(3-methoxypyridazin-4-yl)acetamide], the IC50 in data set [1] (biochemical DNA-PK assay) was 0.003 to 0.007 µM; in data set [2] (setting [4]), 5 to 10 µM. Further, the Ki in data set [3] (setting [5]) was greater than 25 µM.

For `Cc1nc(C(O)c2cc(-c3ncnc4cc(N5CCOCC5)ccc34)cnc2F)sc1C` (stereo not drawn) [Example 206, (4,5-Dimethyl-thiazol-2-yl)-[2-fluoro-5-(7-morpholin-4-yl-quinazolin-4-yl)-pyridin-3-yl]-methanol], in data set [1] (Table 5), the IC50 is greater than 0.03 µM. The compound further returned a Ki in data set [3] (Ki [Kv1.11 hERG], Table 5) of 15 to 25 µM.

In data set [3] (setting [6]), `[2H]c1c(N2CCOCC2)cc2ncnc(-c3cc(C(O)c4ccc(OC)nn4)c(Cl)cc3F)c2c1[2H]` (stereo not drawn) [Example 225, [2-Chloro-5-(5,6-dideuterio-7-morpholinylquinazolin-4-yl)-4-fluorophenyl]-(6-methoxypyridazin-3-yl)methanol] registered a Ki greater than 25 µM.

`OC(c1cccc(-c2ncnc3cc(N4CCOCC4)ccc23)c1)c1nccs1` (stereo not drawn) [Example 149, [3-(7-Morpholin-4-ylquinazolin-4-yl)-phenyl]thiazol-2-yl-methanol] displayed an IC50 in data set [1] (Table 5) greater than 0.03 µM. Also, in data set [3] (setting [7]), the Ki was greater than 25 µM.

Consider `COc1ccc(C(O)c2cc(-c3ncnc4cc(N5CCOCC5)ccc34)c(F)cc2F)nn1` (single isomer, unassigned) [Example 130, [2,4-Difluoro-5-(7-morpholin-4-yl-quinazolin-4-yl)-phenyl]-(6-methoxy-pyridazin-3-yl)-methanol], for which the Ki in data set [3] (setting [8]) was greater than 25 µM.

In the case of `OC(c1ccc(OC2COC2)nn1)c1cc(-c2ncnc3cc(N4CCOCC4)ccc23)c(F)cc1Cl` (stereo not drawn) [Example 100, [2-Chloro-4-fluoro-5-(7-morpholin-4-yl-quinazolin-4-yl)-phenyl]-[6-(oxetan-3-yloxy)pyridazin-3-yl)-methanol], the IC50 in data set [2] (cellular, HCT116 cells, 10 μM bleomycin, six hours, read-out: IC50 pDNA-PK) is less than 0.5 µM. In addition, the Ki in data set [3] (setting [9]) lay within 10 to 15 µM.

For the compound `[2H]C1([2H])OC([2H])([2H])C([2H])([2H])N(c2ccc3c(-c4cc(C(O)c5ccc(OC)nn5)c(Cl)cc4F)ncnc3c2)C1([2H])[2H]` (single isomer, unassigned) [Example 239, [2-Chloro-4-fluoro-5-[7-(2,2.3,3,5,5,6,6-octadeuteriomorpholin-4-yl)quinazolin-4-yl]phenyl]-(6-methoxypyridazin-3-yl)methanol], in data set [3] (setting [6]), the Ki was 15 to 25 µM.

As to `Cc1nc(C(O)c2cc(-c3ncnc4cc(N5CCOCC5)ncc34)cnc2F)sc1C` (stereo not drawn) [Example 192, (4,5-Dimethyl-thiazol-2-yl)-[2-fluoro-5-(7-morpholin-4-yl-pyrido[4,3-d}-pyrimidin-4-yl)-pyridin-3-yl]-methanol], in data set [1] (Table 5), the IC50 is greater than 0.03 µM. In data set [3] (Ki [Kv1.11 hERG], Table 5), this compound displayed a Ki of 10 to 15 µM.

`CC(O)(c1cncc(-c2ncnc3cc(N4CCOCC4)ccc23)c1)c1nccs1` (stereo not drawn) [Example 138, 1-[5-(7-Morpholin-4-ylquinazolin-4-yl)-pyridin-3-yl]-1-thiazol-2-ylethanol] had an IC50 in data set [1] (Table 5) greater than 0.03 µM. This compound also registered a Ki in data set [3] (Ki [Kv1.11 hERG], Table 5) of 15 to 25 µM.

In the case of `COc1ccc(C(O)c2cc(-c3ncnc4cc(N5CCOCC5)ccc34)c(F)cc2Cl)nn1` (stereo not drawn) [Example 137, [2-Chloro-4-fluoro-5-(7-morpholin-4-ylquinazolin-4-yl)-phenyl]-(6-methoxy-pyridazin-3-yl)-methanol], the Ki in data set [3] (setting [9]) lay in the range of 10 to 15 µM.

Consider `COc1ccc([C@@H](O)c2cc(-c3ncnc4cc(N5CCOCC5)ccc34)c(F)cc2Cl)nn1` [Example 136, (S)-[2-Chloro-4-fluoro-5-(7-morpholin-4-yl-quinazolin-4-yl)-phenyl]-(6-methoxy-pyridazin-3-yl)-methanol], for which, in data set [3] (setting [8]), the Ki is greater than 25 µM.

Turning to `OC(c1ccc(-c2ncnc3cc(N4CCOCC4)ccc23)s1)c1nccs1` (stereo not drawn) [Example 147, [5-(7-Morpholin-4-ylquinazolin-4-yl)-thiophen-2-yl]-thiazol-2-ylmethanol], the Ki in data set [3] (Ki [Kv1.11 hERG], Table 5) lay in the range of 10 to 15 µM.

`CC(C)(C)n1cc(C(O)c2cc(-c3ncnc4cc(N5CCOCC5)ccc34)cnc2F)cn1` (stereo not drawn) [Example 198, (1-tert-Butyl-1H-pyrazol-4-yl)-[2-fluoro-5-(7-morpholin-4-yl-quinazolin-4-yl)-pyridin-3-yl]-methanol]: in data set [1] (Table 5), the IC50 was 0.007 to 0.03 µM. In addition, the Ki in data set [3] (setting [7]) is greater than 25 µM.

Regarding `CC(O)(c1cccc(-c2ncnc3cc(N4CCOCC4)ccc23)c1)c1nccs1` (stereo not drawn) [Example 154, 1-[3-(7-Morpholin-4-ylquinazolin-4-yl)-phenyl]-1-thiazol-2-ylethanol], the half-maximal inhibitory concentration (IC50) in data set [1] (Table 5) was greater than 0.03 µM. The same compound displayed a Ki in data set [3] (Ki [Kv1.11 hERG], Table 5) of 15 to 25 µM.

For `NC(=O)C(c1cc(-c2ncnc3cc(N4CCOCC4)ccc23)c(F)cc1Cl)c1ncnn2cccc12` (stereo not drawn) [Example 309, 2-[2-Chloro-4-fluoro-5-(7-morpholin-4-yl-quinazolin-4-yl)-phenyl]-2-[3H-pyrrolo[2,1-f][1,2,4]-triazin-(4E)-ylidene]-acetamide], the IC50 in data set [2] (setting [4]) was in the range of 10 to 30 µM. The Ki in data set [3] (setting [5]) was less than 10 µM.

In data set [3] (setting [9]), `COc1ccc(C(O)c2cc(-c3ncnc4cc(N5CCOCC5)ccc34)c(F)cc2F)nn1` (stereo not drawn) [Example 131, [2,4-Difluoro-5-(7-morpholin-4-yl-quinazolin-4-yl)-phenyl]-(6-methoxy-pyridazin-3-yl)-methanol] came in with a Ki of 15 to 25 µM.

In turn, `COc1ccc(C(O)c2cc(-c3ncnc4cc(N5CCOCC5)ccc34)c(F)cc2F)nn1` (single isomer, unassigned) [Example 129, [2,4-Difluoro-5-(7-morpholin-4-yl-quinazolin-4-yl)-phenyl]-(6-methoxy-pyridazin-3-yl)-methanol] returned a Ki in data set [3] (setting [9]) of 15 to 25 µM.

In turn, `Cc1nc(C(O)c2cc(-c3ncnc4cc(N5CCOCC5)ccc34)cnc2F)sc1C` (stereo not drawn) [Example 194, (4,5-Dimethyl-thiazol-2-yl)-[2-fluoro-5-(7-morpholin-4-yl-quinazolin-4-yl)-pyridin-3-yl]-methanol] came in with an IC50 in data set [1] (Table 5) of 0.007 to 0.03 µM. For the same compound, the Ki in data set [3] (setting [7]) was greater than 25 µM.

In the case of `COc1ccc([C@H](O)c2cc(-c3ncnc4cc(N5CCOCC5)ccc34)c(F)cc2Cl)nn1` [Example 135, (R)-[2-Chloro-4-fluoro-5-(7-morpholin-4-yl-quinazolin-4-yl)-phenyl]-(6-methoxy-pyridazin-3-yl)-methanol], the Ki in data set [3] (setting [8]) is greater than 25 µM.

In data set [1] (Table 5), `Cc1csc(C(O)c2cnc(F)c(-c3ncnc4cc(N5CCOCC5)ncc34)c2)n1` (stereo not drawn) [Example 195, [6-Fluoro-5-(7-morpholin-4-yl-pyrido[4,3-d}-pyrimidin-4-yl)-pyridin-3-yl]-(4-methyl-thiazol-2-yl)-methanol] yielded an IC50 greater than 0.03 µM. Moreover, the Ki in data set [3] (Ki [Kv1.11 hERG], Table 5) was 15 to 25 µM.

On to `OC(c1ccc(F)c(-c2ncnc3cc(N4CCOCC4)sc23)c1)c1nccs1` (stereo not drawn) [Example 145, [4-fluoro-3-(6-morpholin-4-ylthieno[3,2-d]pyrimidin-4-yl)phenyl]thiazol-2-ylmethanol], for which the IC50 in data set [2] (Table 5, HCT116 cells, read-out: IC50 pDNA-PK) is 0.5 to 5 µM. In addition, the Ki in data set [3] (setting [7]) was greater than 25 µM.

In the case of `OCc1csc(C(O)c2cc(-c3ncnc4cc(N5C6CCC5COC6)ccc34)c(F)cc2Cl)n1` (stereo not drawn) [Example 187, {2-Chloro-4-fluoro-5-[7-(3-oxa-8-aza-bicyclo[3.2.1]oct-8-yl)quinazolin-4-yl]-phenyl}-(4-hydroxy-methylthiazol-2-yl)-methanol], the IC50 in data set [2] (IC50 pDNA-PK, Table 5, HCT116 cells) was in the range of 10 to 30 µM. The compound further displayed a Ki in data set [3] (Ki [Kv1.11 hERG], Table 5) of 15 to 25 µM.
